From patent US20040229791A1, “Compositions and methods of modulating TGF-beta activity by fatty acids” (priority 2002, published 2004)

How the values were obtained:
[1] = biological target: T1, α2M* and nerve growth factor (NGF) (Homo sapiens, UniProt P01023); experiment: Complex formation between α2M* and nerve growth factor; format: binding
T1 sequence (P01023 24-1474): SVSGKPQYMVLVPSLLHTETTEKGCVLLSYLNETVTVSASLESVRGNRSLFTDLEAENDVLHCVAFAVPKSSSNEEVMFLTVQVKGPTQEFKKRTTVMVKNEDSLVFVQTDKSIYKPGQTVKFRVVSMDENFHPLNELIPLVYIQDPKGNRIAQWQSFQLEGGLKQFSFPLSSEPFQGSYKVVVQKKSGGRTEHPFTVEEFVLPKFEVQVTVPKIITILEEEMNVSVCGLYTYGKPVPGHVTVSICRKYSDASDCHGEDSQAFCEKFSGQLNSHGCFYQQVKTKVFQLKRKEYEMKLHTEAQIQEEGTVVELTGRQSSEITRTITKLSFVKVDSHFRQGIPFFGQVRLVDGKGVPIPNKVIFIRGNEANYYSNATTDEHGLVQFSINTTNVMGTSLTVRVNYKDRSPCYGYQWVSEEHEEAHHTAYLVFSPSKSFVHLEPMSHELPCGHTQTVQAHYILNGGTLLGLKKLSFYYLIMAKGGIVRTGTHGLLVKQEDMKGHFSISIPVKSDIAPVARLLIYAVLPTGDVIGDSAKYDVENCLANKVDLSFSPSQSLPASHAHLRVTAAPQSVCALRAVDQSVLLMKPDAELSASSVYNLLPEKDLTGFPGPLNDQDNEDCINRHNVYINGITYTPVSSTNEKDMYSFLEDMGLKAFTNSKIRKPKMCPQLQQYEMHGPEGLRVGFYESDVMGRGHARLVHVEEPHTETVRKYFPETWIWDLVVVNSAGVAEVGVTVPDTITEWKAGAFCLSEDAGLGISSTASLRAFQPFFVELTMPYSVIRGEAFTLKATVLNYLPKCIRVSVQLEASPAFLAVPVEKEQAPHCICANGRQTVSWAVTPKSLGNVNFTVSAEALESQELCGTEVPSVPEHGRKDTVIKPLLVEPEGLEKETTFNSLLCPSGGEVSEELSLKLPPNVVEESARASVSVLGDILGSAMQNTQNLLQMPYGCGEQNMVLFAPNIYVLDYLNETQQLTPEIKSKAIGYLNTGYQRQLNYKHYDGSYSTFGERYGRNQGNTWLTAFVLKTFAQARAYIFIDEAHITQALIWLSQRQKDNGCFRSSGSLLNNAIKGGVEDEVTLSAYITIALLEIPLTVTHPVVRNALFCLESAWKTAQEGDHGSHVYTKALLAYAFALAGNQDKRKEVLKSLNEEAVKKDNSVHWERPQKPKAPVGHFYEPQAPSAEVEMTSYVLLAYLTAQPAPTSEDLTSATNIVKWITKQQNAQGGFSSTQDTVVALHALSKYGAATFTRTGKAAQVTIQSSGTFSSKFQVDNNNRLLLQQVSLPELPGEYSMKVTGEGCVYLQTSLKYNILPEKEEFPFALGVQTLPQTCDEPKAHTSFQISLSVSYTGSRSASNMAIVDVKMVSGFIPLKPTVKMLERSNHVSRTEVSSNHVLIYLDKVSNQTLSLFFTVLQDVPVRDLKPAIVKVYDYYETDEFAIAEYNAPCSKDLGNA

Mv1Lu cells = experiment: [Methyl-3H]-thymidine incorporation assay, TGF-β2-induced growth inhibition; format: cell-based, mink
From the text: (§1) The levels of TGF ? β and ? 2M* also increase dramatically. α2M* is capable of inhibiting TGF- ? activity by forming complexes with TGF- ? and thus preventing it from binding to TGF ? β receptors in cells involved. Fatty acids may potentiate TGF ? β activity by blocking complex formation of ? 2M* and TGF ? β under these conditions. To test this possibility, we determined the effects of arachidonic acid on ^125I-TGF- ? 2 binding (in the presence and absence of α2M*) to Mv1Lu cells. ? 2M* is known to inhibit TGF- ? 2 more strongly than TGF ? β1 binding to T receptors in cells (13). Various concentrations of ^125I-TGF- ? 2 were preincubated with 200 μg/ml of ? 2M* in the presence or absence of 30 μM arachidonic acid for 30 min prior to the performance of binding assays in Mv1Lu cells. […] The residual ^125I-TGF- ? binding associated with the cells after ? 2M* inhibition was mainly due to non-specific binding of ^125I-TGF- ? 2. […] In the presence of 200 μg/ml of ? 2M*, the dose-response curve of TGF ? β2 shifted to the right. […] Addition of arachidonic acid at 0.5 and 1 μM reversed the inhibitory effect of. α2M* on TGF- ? 2-induced growth inhibition as measured by [methyl-^3H]-thymidine incorporation.
[Methyl-^3H]-Thymidine Incorporation Assay—Mv1Lu cells were plated at a cell density of 7.5×10^4 cells/well in DMEM containing 0.1% fetal calf serum in 48-well cluster dishes. After 4 hr at 37° C. (to allow cell adherence), cells were treated with various concentrations of TGF- ? 2,2M* (0 or 200 μg/ml) and arachidonic acid ([…] or 1 μM). After 1h at 37° C., cells were pulsed with 1 μCi/ml [methyl-^3H]-thymidine for 2 hr. The [methyl-^3H]-th incorporation into cellular DNA was carried out in triplicate as described previously (23).

[2] = system: TGF-β receptors in Mv1Lu cells; experiment: Binding of 125I-TGF-β2 to Mv1Lu cells in the presence of α2M*; format: cell-based, mink; details: 30 μM arachidonic acid, 200 μg/ml α2M*
From the text: as §1
Binding of ^125I-TGF- ? […] After 2.5 hr at 0° C., the cells were washed with binding buffer, and the cell-associated radioactivity was determined. […]

SMILES: CCCCC/C=C\C/C=C\C/C=C\C/C=C\CCCC(=O)O [arachidonic acid]
- blocking of complex formation between α2M* and NGF [1]: block complex formation
- reversal of the inhibitory effect of α2M* on TGF-β2-induced growth inhibition (Mv1Lu cells; 0.5 μM arachidonic acid, 200 μg/ml α2M*): reversed
- reversal of the inhibitory effect of α2M* on growth inhibition induced by 1 pM TGF-β2 (Mv1Lu cells; 1 μM arachidonic acid, 200 μg/ml α2M*): almost completely reversed
- effect on growth inhibition induced by TGF-β2 in the absence of α2M* (Mv1Lu cells; absence of α2M*): did not affect growth inhibition
- reversal of α2M* inhibition of 125I-TGF-β2 binding to Mv1Lu cells [2]: completely reversed
